Columns and labels:
[1] = target: NAALADase (Rattus norvegicus, UniProt P70627); test: In vitro inhibition of NAALADase activity; assay type: biochemical; details: for Ki: read-out: K1
[2] = test system: male Brown Norway rats; test: Experimental rat glaucoma (IOP elevation by hypertonic saline), optic nerve fiber counting; assay type: in vivo; details: 8 week group, 10 mg/kg daily i.p.
Experimental: (§1) All experiments complied with the Association for Research in Vision and Ophthalmology Statement for the Use of Animals in Ophthalmic and Vision Research. 82 male Brown Norway rats (Rattus norvegicus), each weighing approximately 250 gm, were treated using procedures approved by the Animal Care Committee of the Johns Hopkins University School of Medicine. The rats were housed with a 12 hour light/12 hour dark cycle and fed ad libitum .
EXPERIMENTAL GLAUCOMA: Unilateral elevation of IOP was produced in 56 rats by microinjection of hypertonic saline into episcleral veins, following procedures described in Morrison, J. et al., IOVS (March 1998) 39:526-531. Beginning on the day of IOP elevation, the rats were treated daily with intraperitoneal injections of either a vehicle (23 rats with 50 mM HEPES-buffered saline) or a NAALADase inhibitor (11 rats with 10 mg/kg of 2-[[(2,3,4,5,6-pentafluorobenzyl)hydroxyphosphinyl]-methyl]pentanedioic acid (“Compound A”) and 22 rats with 10 mg/kg of 2-(3-sulfanylpropyl)pentanedioic acid (“Compound B”)). 11 saline treated rats, 11 Compound A treated rats and 11 Compound B treated rats were sacrificed at 8 weeks, and the remaining rats at 12 weeks, after initial IOP elevation.
(§2) OPTIC NERVE COUNTING: The rats were sacrificed by exsanguination under deep pentobarbital anesthesia. They were perfused through the heart with 2% paraformaldehyde/2% glutaraldehyde in 0.1 M phosphate buffer, pH 7.2, and the eyes with attached optic nerves were removed. A cross-section of the optic nerve from both experimental (glaucoma or transection) and control eyes was removed 1.5 mm posterior to the globe, 1 mm in thickness, and post-fixed in 2% osmium tetroxide in buffer. These were processed into epoxy resin, sectioned at 1 micron and stained with toluidine blue.
(§3) The area of the optic nerve cross-section was measured by outlining its outer border at 10×magnification on an image analysis system (Universal Imaging Corp., Westchester, Pa.) with Synsys digital camera and Metamorph software. Three area measurements were taken and the mean value was determined. To measure the density and fiber diameter distributions, images were captured with a 100× phase contrast objective from 10 different areas of each nerve. These were edited to eliminate non-neural objects and the size of each axon internal to the myelin sheath (its minimum diameter) and the density of axons/square mm were calculated for each image and nerve. The mean density was multiplied by total nerve area to yield fiber number for each nerve. The total fiber number in glaucoma or transection nerves was compared to the normal, fellow eye of each rat to yield a percent loss value. The number of axons counted among the 10 images was an approximately 20% sample of the 80-90,000 axons in normal rat nerves. The person measuring axon number was masked to the protocol conducted on the nerves.

[3] = test system: male Brown Norway rats; test: Optic nerve transection in rats, optic nerve fiber counting; assay type: in vivo, Rattus norvegicus; details: for FIBER NUMBER ± SEM / PERCENT DIFFERENCE ± SEM: 10 mg/kg daily i.p.; for PERCENT DIFFERENCE ± SEM: transected vs normal eye
Experimental: as §1
OPTIC NERVE TRANSECTION: The optic nerve was transected unilaterally in 26 rats under intraperitoneal pentobarbital anesthesia. The conjunctiva was opened with scissors and the optic nerve exposed by traction on extraocular muscles. The transection was performed with microscissors 5 mm posterior to the globe, with specific attention to avoidance of injury to major ocular blood vessels. Immediately after transection, the retina was examined ophthalmoscopically to assure that the retinal arterial blood supply was not disrupted. The conjunctiva was closed with absorbable suture and the eye dressed with antibiotic ointment. Beginning on the day of transection, the rats were treated daily with intraperitoneal injections of either a vehicle (9 rats with 50 mM HEPES-buffered saline) or a NAALADase inhibitor (8 rats with 10 mg/kg of Compound A and 9 rats with 10 mg/kg of Compound B). 5 saline treated rats, 3 Compound A treated rats and 4 Compound B treated rats were sacrificed at 2 weeks, and the remaining rats at 4 weeks, after transection.
as §2, §3

[4] = 2 weeks survival after transection
[5] = 4 weeks survival after transection

NAALADase, sequence (P70627 whole entry): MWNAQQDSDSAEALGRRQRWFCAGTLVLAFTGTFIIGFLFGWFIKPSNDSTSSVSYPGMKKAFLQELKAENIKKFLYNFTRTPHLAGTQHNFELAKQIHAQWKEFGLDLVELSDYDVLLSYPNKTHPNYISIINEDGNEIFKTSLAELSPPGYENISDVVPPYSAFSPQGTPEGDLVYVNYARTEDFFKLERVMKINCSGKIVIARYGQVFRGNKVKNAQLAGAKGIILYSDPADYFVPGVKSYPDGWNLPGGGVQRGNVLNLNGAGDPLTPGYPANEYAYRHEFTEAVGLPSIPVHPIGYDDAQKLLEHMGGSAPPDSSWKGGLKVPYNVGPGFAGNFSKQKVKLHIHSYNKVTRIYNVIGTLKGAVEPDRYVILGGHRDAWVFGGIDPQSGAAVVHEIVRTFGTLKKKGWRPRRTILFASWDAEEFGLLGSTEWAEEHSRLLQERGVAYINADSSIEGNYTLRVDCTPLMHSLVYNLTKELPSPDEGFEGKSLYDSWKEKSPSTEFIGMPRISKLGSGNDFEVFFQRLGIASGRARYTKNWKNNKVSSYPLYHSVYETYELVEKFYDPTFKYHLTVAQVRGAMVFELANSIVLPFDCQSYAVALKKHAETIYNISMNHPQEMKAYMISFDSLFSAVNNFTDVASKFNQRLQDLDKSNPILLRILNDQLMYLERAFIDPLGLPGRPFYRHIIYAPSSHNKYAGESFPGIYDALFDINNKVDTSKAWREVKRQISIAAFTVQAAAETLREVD

| Molecule | Ki [1] [µM] | also measured |
| --- | --- | --- |
| O=C(Cc1cc(C(=O)O)cc(C(=O)O)c1)NO [5-[2-(hydroxyamino)-2-oxoethyl]-1,3-benzenedicarboxylic acid] | 12 | – |
| O=C(O)c1ccc(C(=O)O)c(S(=O)(=O)c2cc(C(=O)O)ccc2C(=O)O)c1 [2-[(2,5-dicarboxyphenyl)sulfonyl]-1,4-benzenedicarboxylic acid] | 1.87 | – |
| O=C(O)c1cc(CNCc2ccco2)cc(C(=O)O)c1 [5-[[(2-furanylmethyl)amino]methyl]-1,3-benzenedicarboxylic acid] | 50 | – |
| O=C(O)c1ccc(C(=O)c2ccc(Oc3ccc(C(=O)O)c(C(=O)O)c3)cc2)c(C(=O)O)c1 [4-[4-(2,4-dicarboxybenzoyl)phenoxy]-1,2-benzenedicarboxylic acid] | 1.17 | – |
| O=C(O)c1cc(CCS)cc(C(=O)O)c1 [5-(2-mercaptoethyl)-1,3-benzenedicarboxylic acid] | 5.1 | – |
| O=C(O)c1cc(CP(=O)(O)O)cc(C(=O)O)c1 [5-phosphonomethyl-1,3-benzenedicarboxylic acid] | 3.1 | – |
| O=C(O)c1cc(C(=O)O)cc(C(=O)NO)c1 [5-[(hydroxyamino)-carbonyl]-1,3-benzenedicarboxylic acid] | 1 | – |
| O=C(O)c1ccc(CCS)c(C(=O)O)c1 [4-(2-mercaptoethyl)-1,3-benzenedicarboxylic acid] | 0.116 | – |
| O=C(O)c1ccc(Sc2ccccc2C(=O)O)c(C(=O)O)c1 [4-[(2-carboxyphenyl)thio]-1,3-benzenedicarboxylic acid] | 3.98 | – |
| O=C(O)c1ccc(S(=O)(=O)c2cc(C(=O)O)ccc2C(=O)O)cc1 [2-[(4-carboxyphenyl)sulfonyl]-1,4-benzenedicarboxylic acid] | 2.37 | – |
| O=C(O)c1cc(OCCS)cc(C(=O)O)c1 [5-(2-mercaptoethoxy)-1,3-benzenedicarboxylic acid] | 14.5 | – |
| 3-(2-Carboxy-4-hydroxycarbamoyl-butyl)-benzoic acid | – | IC50 [1]: 0.0478 µM |
| O=C(O)c1ccc(C(=O)O)c(Sc2ccccc2C(=O)O)c1 [2-[(2-carboxyphenyl)thio]-1,4-benzenedicarboxylic acid] | 0.572 | – |
| O=C(O)c1cc(C(=O)O)cc(P(=O)(O)O)c1 [5-phosphono-1,3-benzenedicarboxylic acid] | 14 | – |
| O=C(O)CNc1cc(C(=O)O)cc(C(=O)O)c1 [5-[(carboxymethyl)amino]-1,3-benzenedicarboxylic acid] | 100 | – |
| O=C(O)CCC(CP(=O)(O)Cc1c(F)c(F)c(F)c(F)c1F)C(=O)O (stereo not drawn) [Compound A, 2-[[(2,3,4,5,6-pentafluorobenzyl)hydroxyphosphinyl]-methyl]pentanedioic acid] | – | FIBER NUMBER ± SEM [2]: 79156 ± 2436; PERCENT DIFFERENCE ± SEM ([2]; fiber number glaucoma vs normal eye, positive = fewer fibers in glaucoma eye): −1.82 ± 2.92%; IOP INTEGRAL DIFFERENCE ± SEM ([2]; glaucoma eye vs normal eye): 85 ± 37.5 mm Hg—days; remaining axons relative to the saline-treated rats ([3]; 2 weeks after transection): 3 times; FIBER NUMBER ± SEM [3, 4]: 26,426 ± 13,293; PERCENT DIFFERENCE ± SEM [3, 4]: 65.3 ± 17.8%; FIBER NUMBER ± SEM [3, 5]: 13,599 ± 3,519; PERCENT DIFFERENCE ± SEM [3, 5]: 82.4 ± 4.0% |
| O=C(O)c1ccc(OCCCSSCCCOc2ccc(C(=O)O)cc2C(=O)O)c(C(=O)O)c1 [4-[3-[[3-(2,4-dicarboxyphenoxy)-propyl]-dithio]propoxy]-1,3-benzenedicarboxylic acid] | 3.75 | – |
| O=C(O)c1cc(OCCCS)cc(C(=O)O)c1 [5-(3-mercaptopropoxy)-1,3-benzenedicarboxylic acid] | 3.3 | – |
| O=C(O)Cc1cc(C(=O)O)ccc1C(=O)O [2-carboxymethyl-1,4-benzenedicarboxylic acid] | 9 | – |
| O=C(O)c1cc(CS)cc(C(=O)O)c1 [5-mercaptomethyl-1,3-benzenedicarboxylic acid] | 6.5 | – |

From patent publication US7220780B2, “Naaladase inhibitors for treating retinal disorders and glaucoma” (Guilford Pharmaceuticals Inc., priority 2000, dated 2007)
